Results on two molecules are retold here after patent EP0518769B1, “Ethanolaminebenzoate derivative, process for their preparation and pharmaceutical compositions containing them” (ADIR ET COMPAGNIE, priority 1991, dated 1992).

Experiment [1] relates to Rats SDCD mâles de 52 semaines. Briefly: Chronic per os treatment (14 days, twice daily) in the male SDCD rat aged 52 weeks. It counts as in vivo. As to conditions: 0,5 mg/kg×2 per os, vs Contrôle 1,1 ± 0,14 g/l. The text has this:
Les essais sont réalisés sur des rats qui présentent des anomalies pondérales associées à un hyperinsulisme et une hyperglycéridémie.
Il est recherché : • d'une part l'effet d'un traitement prolongé du produit de l'exemple 1 et de substances de référence sur ces anomalies, et • d'autre part, la consommation du glucose par le tissu adipeux est mesuré à l'état basal et en présence d'insuline (10⁻⁹ M).
On utilise des rats identiques à ceux de l'étude du traitement aigu, (cf. ci-dessus le paragraphe A- 2.1), à savoir des rats SDCD mâles agés de 52 semaines.
9 jours avant le début de l'expérimentation (J₋₉), sont constitués des lots de rats par randomisation stratifiée sur le poids.
5 jours avant le début de l'expérimentation (J₋₅), les rats sont conditionnés par administration d'une solution de gomme.
Le premier jour de l'expérimentation (J₁), les produits à tester sont administrés à différentes doses aux rats 2 fois par jour. Plus précisémment, les produits sont administrés en suspension dans la gomme entre 9 et 10 heures et 16-17 heures pendant 14 jours. Une pesée quotidienne des animaux traités est effectuée.
Le 15ème jour, les rats (à jeun depuis 18 heures) sont sacrifiés par décapitation. Le sang est recueilli directement dans une cupule. Un aliquote (50 µl) est transféré dans 500 µl d'acétate d'uranyl pour dosage de la glycémie. […]

The subject of experiment [2] is rats agés de 12 semaines, insulinorésistance induite par l'amyline. The experiment in a line: Insulin resistance induced by intraportal amylin perfusion, with IVGTT. In kind it is in vivo, rat. The settings on record: Perfusion amyline + 0,75µg/kg/min pendant 60 mn. From the text:
A J₇ avant le début de l'expérimentation, les rats sont anesthésiés à la kétamine (IMALGENE 1000 - Rhône MERIEUX), et un cathéter en silastic (602-135, médical grade, DOW CORNING MIDLAND) est implanté dans la veine porte hépatique [cf. Strubbe J.H., Wolsink J.G., Schutte A.M., Balkan B., and Prins A.J.A. : Hepatic-portal and cardiac infusion of CKK-8 and glucagon induce different effects on feeding. Physiology and Behavior 46,643-646 (1989)] pour la perfusion du soluté physiologique (jour contrôle) puis du produit à tester. Ils sont alors placés individuellement dans des cages en plexiglas. • Après récupération, soit environ 10 jours plus tard, un second cathéter en silastic (602-155, médical grad, DOW CORNING MIDLAND) est introduit jusque dans l'oreillette droite par la veine jugulaire droite [cf. Steffens A.B : A Method for frequent sampling of blood and continuous infusion of fluids in the rat without disturbing the animal. Physiology and behavior 4, 833-836 (1969)]. Lors des test, les différents prélèvements sanguins et l'injection intra-cardiaque du bolus glucosé seront effectués à l'aide de ce cathéter. Pendant les deux interventions chirurgicales, les cathéters sont glissés sous la peau et extériorisés au-dessus de la tête au moyen d'une aiguille limée recourbée et bouchée par un capuchon de polyéthylène (PE) fermé à la bougie. • 0,4 ml d'une solution d'héparine à 500 U/ml (ROUSSEL UCLAF) suivie de 0,1 ml de PVP (Solution de Polyvinylpyrrolidone à 30 % - PM 25000 - MERCK) sont introduits dans les cathéters avant la fermeture par le capuchon de polyéthylène. La viscosité du PVP permet d'éviter un reflux du sang dans le cathéter. • La veille de chaque expérience, les rats sont soumis à un jeûne nocturne de 18 heures. Le jour de l'expérience, ces rats sont pesés et le bon fonctionnement des cathéters vérifié. • Afin d'éliminer le stress du branchement des cathéters sur les aiguilles extériorisées sur le dessus de la tête, 20 minutes de repos sont nécessaires avant de commencer l'expérience. • Les perfusions intraportales, réalisées à l'aide d'un cathéter en polyéthylène N° 3 durent 60 minutes; elles ont un débit constant de 2 ml/heure soit envirion 0,033 ml/minute, assuré par un perfuseur BRAUN. […]

The test system of experiment [3] is Rats SDCD mâles 52 semaines. The experiment in a line: Acute treatment by portal perfusion in the conscious rat, with IVGTT. In kind it is in vivo. The settings on record: 0,25 µg/kg/min×60 min intraportal perfusion; vs Contrôle 57,4 ± 13,7 µU/ml. From the text: La technique de perfusion portale chez le rat vigile permet d'étudier l'effet de substances pharmacologiques sur les modifications de la tolérance au glucose adminstré par voie intraveineuse.
L'injection d'agents directement dans la circulation portale permet d'éviter les effets du transit gastrique, d'absorption et de libération d'hormone par la paroi intestinale et ainsi d'explorer : • soit un effet direct sur le tissu hépatique, • soit l'existence d'un relai foie-système nerveux central-tissu périphérique (foie, muscle ou cible endocrine).
Dans cette expérimentation, on a utilisé des rats mâles adultes SPRAGUE DAWLEY par lots de 5 à 12 rats.
Les rats utilisés, agés de 52 semaines, présentent • une diminution de la tolérance au glucose, • une augmentation de l'insulinémie basale, et • une augmentation des lipides plasmatiques.
La stabulation (de 9 à 52 semaines) de ces rats a été réalisée dans une pièce à température régulée de 21 à 22 °C et soumise à un cycle fixe de lumière (de 7 h 30 à 19 h 30) et d'obscurité (de 19 h 30 à 7 h 30). Leur alimentation a consisté en un régime d'entretien (UAR A 03); eau et nourriture ont été fournies "ad libitum", à l'exception du jeûne nocturne précédant les tests où la nourriture était retirée. […]

In experiment [4] the test system is LDL. Briefly: LDL oxidation in vitro by monocytes. In kind it is cell-based. As to conditions: à 10⁻⁴ M. The text has this:
(§1) Une étude comparative entre le produit de l'exemple 1 et les substances de référence (Benfluorex, Diméthylbiguanide) sur l'oxydation des LDL in vitro a été réalisée.

In experiment [5] the test system is LDL. The experiment in a line: LDL oxidation in vitro by copper. It counts as biochemical. As to conditions: à 10⁻⁴ M.
Source text: as §1

Consider `COC(CNCCOC(=O)c1ccc(CCNC(=O)CC2c3ccccc3-c3ccccc32)cc1)c1cccc(C(F)(F)F)c1` (single isomer, unassigned) [Exemple 1, Isomère lévogyre du chlorhydratede para-[2-(α-fluorén-9-ylacétylamino) éthyl] benzoatede 2-[(β-méthoxy β-métatrifluorométhylphényl) éthylamino] éthyle], for which, in experiment [1], the Cholestérol variation % is on record as 0%. In addition, in experiment [2] (Controle 3,54±0,24, amyline alone 1,71±0,27), the “Tolérance au glucose K.10^-2” value was 3,79±0,38. Further, in experiment [2] (Controle 5,93±0,48, amyline alone 6,87±0,77), the Insulinémie basale was 8,26±1,15 µU/ml. For the same molecule, the “Insulinémie 24 min après glucose” value in experiment [2] (Controle 8,86±0,77, amyline alone 15,28±1,90) is on record as 15±1,86 µU/ml. Further, in experiment [2] (Controle 24,80±1,86, amyline alone 23,54±1,7), the Insulinémie au pic is 23,60±2,17 µU/ml. Besides, the “Insulinémie au pic Variation %” value in experiment [3] is listed as 0%.

With `CC(Cc1cccc(C(F)(F)F)c1)NCCOC(=O)c1ccccc1` (stereo not drawn) [Benfluorex, 1-(3-trifluorométhylphényl)-2-(β-benzoyloxyéthyl)aminopropane], the “Oxydation des LDL in vitro par les monocytes” value in experiment [4] is listed as “Inactif à 10⁻⁴ M”. Further, the “Oxydation des LDL in vitro par le cuivre” value in experiment [5] is given as “Inactif à 10⁻⁴ M”.
